The values below come from PMC4438233, “Antibacterial effects of Traditional Chinese Medicine monomers against Streptococcus pneumoniae via inhibiting pneumococcal histidine kinase (VicK)” (Frontiers in Microbiology, 2015).

Like-named read-outs stand apart in the source and are kept apart here. Marks after values point to notes of the source that are not given here.

One assay addresses T1, full-length VicK protein (Streptococcus pneumoniae, UniProt Q8DPL8).
T1 construct: 6 His; made in house
The assay is described as follows: Inhibition assay for ATPase activity of VicK (Kinase-Glo Luminescent Kinase Assay). It is filed as biochemical. The conditions noted are these: 6 μg VicK, 5 μM ATP. On the procedure: The inhibitory activities of the Chinese medicine monomers for the ATPase activity of the full-length VicK protein were evaluated using the Kinase-Glo™Luminescent Kinase Assay (Promega, Madison, USA). Briefly, 6 μg VicK protein was pre-incubated with a series of dilution of compounds in the reaction buffer at 37°C for 30 min. 5 μM ATP was added and incubated for another 30 min. Kinase-Glo™Reagent was also added to detect the remaining ATP recorded from luminescence measurements (RLU). In parallel, the VicK protein with no addition of compounds was used as a control, and the mixture with compounds excluding the VicK protein served as another control. The rate of protein phosphorylation (Rp) inhibition by the compounds was calculated from Equation (1).
(1) Rp=1−RLU(compound+ATP+Reagent) −RLU(compound+ATP+vick+Reagent)/RLU(ATP +Reagent)−RLU(ATP+vick+Reagent)×100%
The half maximal inhibitory concentration (IC50), which is the concentration of inhibition of 50% VicK protein autophosphorylation, was determined by GraphPad Prism 5 (Qin et al., [2006]).
(In Kinase-Glo more light means more ATP remaining.)

Assay [1] has as its system clinical S. pneumoniae 19A (CMCC31689). The assay is described as follows: Mouse colonization model, serotype 19A. It is filed as in vivo, BALB/c mice. The note with it: for Mean log CFU at site of infection: 19A; for reduction of 19A bacterial numbers: at 24 h. As to the method: In colonization models, the mice were intranasally challenged by 20 μL of clinical drug-resistant strains (pneumococcal serotype 19F or 19A, 1.5 × 10^8 CFU). An hour later, the mice were intraperitoneally injected with 100 μL drugs (2 × MIC) alone or in combination with PEN (2 × MIC). These injections were continued thrice a day for 3 d. Nasal wash and lung tissues were obtained to analyze the bacteria load at 24, 48, and 72 h after drug infection. Then 100 μL aliquots of the samples diluted were plated on blood agar plates. The colonies were counted after incubation overnight at 37°C with 5% CO2.

A further assay relates to pneumococcal strains. The assay is described as follows: MIC against clinical pneumococcal strains (penicillin susceptible, intermediate, resistant). It is filed as cell-based, Streptococcus pneumoniae. The note with it: for MIC50 / MIC90: Streptococcus pneumoniae. On the procedure:
Minimum inhibitory concentration (MIC) assays for the antibacterial activities of the compounds were performed according to the standard […] method of the Clinical and Laboratory Standards Institute of America. MIC testing of drug-resistant S. pneumoniae, drug-resistant S. aureus, streptococci and antimicrobial combination was also performed using the same method. Briefly, the drugs were serially diluted 2-fold into eight wells with C+Y medium, yielding final concentrations ranging from […]. Then 10^6 CFU bacteria were added to each well. Inoculated medium containing 1% DMSO served as a bacterial growth control, whereas uninoculated medium served as a sterility control. The plates were incubated at 37°C for 12–16 h. […] The experiment was repeated three times.

Setting [2] is: NW (nasal wash), 24 h, i.p. three times a day for 3 days, control 7.29.
Where [3] appears, read: Penicillin intermediate (n = 12).

T1 sequence (Q8DPL8 whole entry): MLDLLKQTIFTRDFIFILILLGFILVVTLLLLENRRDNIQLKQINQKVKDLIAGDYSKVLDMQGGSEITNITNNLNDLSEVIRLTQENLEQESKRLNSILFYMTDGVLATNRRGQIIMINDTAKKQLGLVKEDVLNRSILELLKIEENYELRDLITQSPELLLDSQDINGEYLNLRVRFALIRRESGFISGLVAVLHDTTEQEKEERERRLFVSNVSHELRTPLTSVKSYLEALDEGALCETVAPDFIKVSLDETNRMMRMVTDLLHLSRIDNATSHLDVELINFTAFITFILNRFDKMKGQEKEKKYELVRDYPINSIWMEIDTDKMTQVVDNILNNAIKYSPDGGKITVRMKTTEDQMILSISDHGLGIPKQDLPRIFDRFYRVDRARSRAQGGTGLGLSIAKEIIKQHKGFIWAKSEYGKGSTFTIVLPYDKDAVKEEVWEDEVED

One may read the MIC50 as the lowest concentration that inhibits either 50% of growth or 50% of the strains tested, depending on the study. Broadly, the MIC90 is the lowest concentration that inhibits either 90% of growth or 90% of the strains tested, depending on the study. `CCCCCCCCCCCCOC(=O)c1cc(O)c(O)c(O)c1` [Compound 5, Dodecyl gallate]: the IC50 on full-length VicK protein (IC50 (inhibition of VicK ATPase activity / autophosphorylation)) was 9.1 µM; on full-length VicK protein (IC50 (inhibition of VicK ATPase activity / autophosphorylation), value in parentheses), 9.07 µM. Moreover, the “Mean log CFU at site of infection” value in assay [1] (Lung, 24 h, control 4.85) is given as 1 log CFU; in assay [1] (Lung, 48 h, control 6.12) it was 3 log CFU; in assay [1] (Lung, 72 h, control 6.29), 2.82 log CFU; in assay [1] (setting [2]), 5.91 (0.021)^b log CFU; in assay [1] (NW, 48 h, control 5.97) it was 5.28 log CFU; in assay [1] (NW, 72 h, control 6.01), 3.62 (0.033)^b log CFU. For the same compound, the “reduction of 19A bacterial numbers” value in assay [1] is “two-log reduction”. Besides, the “MIC of pneumococcal strains, Range” value with pneumococcal strains (setting [3]) was in the range of 42 to 168 µg/mL; in the assay on pneumococcal strains (Penicillin resistant (n = 15)), 10.5 to 168.8 µg/mL; with pneumococcal strains (Penicillin susceptible (n = 7)), 21 to 168 µg/mL. In the assay on pneumococcal strains (Penicillin resistant (n = 15)), the “MIC of pneumococcal strains, MIC50” value was 42 µg/mL. Further, the MIC50 was 84 µg/mL with pneumococcal strains (Penicillin intermediate (n = 12), read-out: MIC of pneumococcal strains, MIC50); 42 µg/mL in the assay on pneumococcal strains (Penicillin resistant (n = 15), read-out: MIC of pneumococcal strains, MIC50); 42 µg/mL in the assay with pneumococcal strains (Penicillin susceptible (n = 7), read-out: MIC of pneumococcal strains, MIC50). Moreover, the MIC90 in the assay with pneumococcal strains (Penicillin intermediate (n = 12), read-out: MIC of pneumococcal strains, MIC90) came out at 168 µg/mL; in the assay with pneumococcal strains (Penicillin resistant (n = 15), read-out: MIC of pneumococcal strains, MIC90), 169 µg/mL; in the assay on pneumococcal strains (Penicillin susceptible (n = 7), read-out: MIC of pneumococcal strains, MIC90), 42 µg/mL.
Regarding `CC(C)=CCCC1=CC(=O)c2c(O)ccc(O)c2C1=O` [Compound 3, Deoxyshikonin], the IC50 is 15.4 µM at full-length VicK protein (read-out: IC50 (inhibition of VicK ATPase activity / autophosphorylation) (converted)) and 15.4 µM on full-length VicK protein (value in parentheses, read-out: IC50 (inhibition of VicK ATPase activity / autophosphorylation) (converted)). For the same compound, the “Mean log CFU at site of infection” value in assay [1] (Lung, 24 h, control 4.85) is reported as 1 log CFU; in assay [1] (Lung, 48 h, control 6.12) it was 2.39 (0.0001)^b log CFU; in assay [1] (Lung, 72 h, control 6.29), 1.05 (0.04)^b log CFU; in assay [1] (setting [2]), 6.08 (0.026)^b log CFU; in assay [1] (NW, 48 h, control 5.97), 2.76 (0.005)^b log CFU; in assay [1] (NW, 72 h, control 6.01) it was 3 (0.011)^b log CFU. For the same compound, the “reduction of 19A bacterial numbers” value in assay [1] is listed as “two-log reduction”. Moreover, the results for the “MIC of pneumococcal strains, Range” value in the assay on pneumococcal strains (setting [3]), in the assay with pneumococcal strains (Penicillin resistant (n = 15)) and with pneumococcal strains (Penicillin susceptible (n = 7)) were 34 to 196 µg/mL, 8.5 to 136 µg/mL and 17 to 34 µg/mL, respectively. Moreover, the “MIC of pneumococcal strains, MIC50” value with pneumococcal strains (Penicillin resistant (n = 15)) turned out to be 17 µg/mL. Besides, the MIC50 with pneumococcal strains (read-out: MIC of pneumococcal strains, MIC50, Penicillin intermediate (n = 12)) was 68 µg/mL; in the assay on pneumococcal strains (read-out: MIC of pneumococcal strains, MIC50, Penicillin resistant (n = 15)) it was 17 µg/mL; with pneumococcal strains (read-out: MIC of pneumococcal strains, MIC50, Penicillin susceptible (n = 7)) it was 17 µg/mL. Moreover, the MIC90 in the assay with pneumococcal strains (read-out: MIC of pneumococcal strains, MIC90, Penicillin intermediate (n = 12)) amounted to 196 µg/mL; in the assay on pneumococcal strains (read-out: MIC of pneumococcal strains, MIC90, Penicillin resistant (n = 15)), 68 µg/mL; in the assay with pneumococcal strains (read-out: MIC of pneumococcal strains, MIC90, Penicillin susceptible (n = 7)), 34 µg/mL.
